The test system of the experiment is Hela Cells. The experiment is described as follows: Cellular ER stress model (tunicamycin, WST-8 cell viability). The note with it: Homo sapiens, HeLa, 48 h.
Setting [1] is: read-out: % Cell Survival Cmpd(2.5 μM) + Tuni, Hela cells, compound 2.5 μM + tunicamycin, WST-8 viability 48 hours after tunicamycin treatment.
[2] abbreviates: read-out: Compounds ERS (vs Tn), ERS activity vs Tuni = % cell survival (compound)/% cell survival (tunicamycin), compound 2.5 μM.

Structures can show the parent of a compound that is named as a salt. Where two headings read alike, the source gives them in different places.

As to `O=[N+]([O-])c1cccc(Cl)c1/C=N/NC1=NCCN1` [JM2-89-2, (E)-2-(2-(2-chloro-6-nitrobenzylidene)hydrazinyl)-4,5-dihydro-1H-imidazole hydrochloride], the viability at 2.5 µM stood at 56.9% under setting [1] and 130% under setting [2].

As for `Clc1ccc(/C=N/NC2=NCCN2)cc1Cl` [JM2-91-2, (E)-2-(2-(3,4-dichlorobenzylidene)hydrazinyl)-4,5-dihydro-1H-imidazole hydrochloride], the viability at 2.5 µM is, setting by setting: under setting [1], 54.5%; under setting [2], 124%.

Turning to `Fc1cccc(Cl)c1/C=N/NC1=NCCN1` [JM2-95-2, (E)-2-(2-(2-chloro-6-fluorobenzylidene)hydrazinyl)-4,5-dihydro-1H-imidazole hydrochloride], the viability at 2.5 µM under setting [1] stood at 53% and the viability at 2.5 µM under setting [2] worked out at 121%.

Consider `Clc1cccc(Cl)c1NC1=NCCN1` [JM2-97-2, N-(2,6-dichlorophenyl)-4,5-dihydro-1H-imidazol-2-amine hydrochloride], for which the viability at 2.5 µM (read-out: % Cell Survival Cmpd(2.5 μM) + Tuni) stood at 63.1% and the viability at 2.5 µM (read-out: Compounds ERS (vs Tn)) amounted to 147%.

For `CC(C1=NCCN1)c1c(Cl)cccc1Cl` (stereo not shown) [JM2-101-2, 2-(1-(2,6-dichlorophenyl)ethyl)-4,5-dihydro-1H-imidazole], the viability at 2.5 µM under setting [1] is 49.5% and the viability at 2.5 µM under setting [2] came out at 107%.

`Fc1cccc(F)c1/C=N/NC1=NCCN1` [JM2-103-2, (E)-2-(2-(2,6-difluorobenzylidene)hydrazinyl)-4,5-dihydro-1H-imidazole hydrochloride]: the viability at 2.5 µM by setting is: under setting [1], 48.7%; under setting [2], 105%.

As to `O=[N+]([O-])c1cccc(Br)c1/C=N/NC1=NCCN1` [JM2-109-2, (E)-2-(2-(2-bromo-6-nitrobenzylidene)hydrazinyl)-4,5-dihydro-1H-imidazole hydrochloride], the viability at 2.5 µM runs as follows: under setting [1], 50.2%; under setting [2], 108%.

For `Clc1ccccc1/C=N/NC1=NCCN1` [JM2-113-2, (E)-2-(2-(2-chlorobenzylidene)hydrazinyl)-4,5-dihydro-1H-imidazole hydrochloride], the viability at 2.5 µM is 35.2% under setting [1] and 111% under setting [2].

`Fc1ccccc1/C=N/NC1=NCCN1` [JM2-115-2, (E)-2-(2-(2-fluorobenzylidene)hydrazinyl)-4,5-dihydro-1H-imidazole hydrochloride]: the viability at 2.5 µM amounted to 35.6% under setting [1] and 112% under setting [2].

With `FC(F)(F)c1cccc(Cl)c1/C=N/NC1=NCCN1` [JM2-131-2, (E)-2-(2-(2-chloro-6-(trifluoromethyl)benzylidene)hydrazinyl)-4,5-dihydro-1H-imidazole hydrochloride], the viability at 2.5 µM is 62.6% under setting [1] and 198% under setting [2].

Consider `CNC(=N)N/N=C/c1c(Cl)cccc1Cl` [JM2-171-2, (E)-2-(2,6-dichlorobenzylidene)-N-methylhydrazine-1-carboximidamide hydroiodide], for which the viability at 2.5 µM under setting [1] stood at 67% and the viability at 2.5 µM under setting [2] turned out to be 212%.

For the molecule `N=C(N/N=C/c1c(Cl)cccc1Cl)Nc1ccccc1` [JM2-175-2, (E)-2-(2,6-dichlorobenzylidene)-N-phenylhydrazine-1-carboximidamide hydroiodide], the viability at 2.5 µM runs as follows: under setting [1], 34.3%; under setting [2], 108%.

On to `N=C(N)NNCc1c(Cl)cccc1Cl` [JM2-185-2], for which the viability at 2.5 µM is 31.7% under setting [1] and 100% under setting [2].

Consider `Brc1ccccc1/C=N/NC1=NCCN1` [JM2-191-2, (E)-2-(2-(2-bromobenzylidene)hydrazinyl)-4,5-dihydro-1H-imidazole hydrochloride], for which the viability at 2.5 µM under setting [1] came to 39.5% and the viability at 2.5 µM under setting [2] was found to be 125%.

On to `N=C(N)N/N=C/c1c(Cl)cc(OCc2ccccc2)cc1Cl` [JM2-195-2, (E)-2-(4-(benzyloxy)-2,6-dichlorobenzylidene)hydrazine-1-carboximidamide acetate], for which the viability at 2.5 µM came to 24.1% under setting [1] and 76% under setting [2].

As to `Cc1cc(=O)nc(N/N=C/c2c(F)cccc2Cl)[nH]1` [JM2-203-2, (E)-2-(2-(2-chloro-6-fluorobenzylidene)hydrazinyl)-6-methylpyrimidin-4(1H)-one], the viability at 2.5 µM by setting is: under setting [1], 19.7%; under setting [2], 103%.

As to `CCc1cccc(CC)c1/C=N/NC(=N)N` [JM2-233-2], the viability at 2.5 µM came out at 31.8% under setting [1] and 121% under setting [2].

For the molecule `Clc1cccc(Cl)c1/C=N/NC1=NCCCN1` [JM2-255-2, (E)-2-(2-(2,6-dichlorobenzylidene)hydrazinyl)-1,4,5,6-tetrahydropyrimidine hydrochloride], the viability at 2.5 µM worked out at 63.8% under setting [1] and 201% under setting [2].

For the molecule `Cc1cccc(Cl)c1/C=N/NC1=NCCCN1` [JM2-265-2, (E)-2-(2-(2-chloro-6-methylbenzylidene)hydrazinyl)-1,4,5,6-tetrahydropyrimidine hydrochloride], the viability at 2.5 µM came out at 47.2% under setting [1] and 179% under setting [2].

Consider `Clc1cccc(Cl)c1CC1=NCCCN1` [JM2-271-2, 2-(2,6-dichlorobenzyl)-1,4,5,6-tetrahydropyrimidine], for which the viability at 2.5 µM reads like this: under setting [1], 32.3%; under setting [2], 123%.

Regarding `N=C(N)NC(=O)Cc1c(Cl)cccc1[N+](=O)[O-]` [JM2-275-2, N-carbamimidoyl-2-(2-chloro-6-nitrophenyl)acetamide hydrochloride], the viability at 2.5 µM was 29.8% under setting [1] and 101% under setting [2].

Take `N=C(N)N/N=C/c1cccs1` [JM2-279-2, (E)-2-(thiophen-2-ylmethylene)hydrazine-1-carboximidamide]: the viability at 2.5 µM is 32.1% under setting [1] and 122% under setting [2].

Take `N=C(N)NC(=O)Cc1c(Cl)cccc1Cl` [JM2-287-2, N-carbamimidoyl-2-(2,6-dichlorophenyl)acetamide hydrochloride]: the viability at 2.5 µM runs as follows: under setting [1], 33%; under setting [2], 111%.

For the molecule `CN(C)C(=N)N/N=C/c1c(Cl)cccc1Cl` [JM2-289-2, (E)-2-(2,6-dichlorobenzylidene)-N,N-dimethylhydrazine-1-carboximidamide hydroiodide], the viability at 2.5 µM reads like this: under setting [1], 33.8%; under setting [2], 128%.

Turning to `N=C(N)N/N=C/c1cc(Cl)ccc1Cl` [JM3-11-2, (E)-2-(2,5-dichlorobenzylidene)hydrazine-1-carboximidamide acetate], the viability at 2.5 µM is, setting by setting: under setting [1], 40.2%; under setting [2], 153%.

In the case of `N=C(N)N/N=C/c1ccccc1[N+](=O)[O-]` [JM3-13-2, (E)-2-(2-nitrobenzylidene)hydrazine-1-carboximidamide acetate], the viability at 2.5 µM under setting [1] was 27.4% and the viability at 2.5 µM under setting [2] stood at 104%.

In the case of `N=C(N)N/N=C/c1ccccc1O` [JM3-17-2, (E)-2-(2-hydroxybenzylidene)hydrazine-1-carboximidamide acetate], the viability at 2.5 µM was 28.7% under setting [1] and 109% under setting [2].

For the molecule `N=C(N)NCC(O)c1c(Cl)cccc1Cl` (stereo not shown) [JM3-27-2, 1-(2-(2,6-dichlorophenyl)-2-hydroxyethyl)guanidine], the viability at 2.5 µM runs as follows: under setting [1], 28.6%; under setting [2], 109%.

`N=C(N)N/N=C/c1c(Cl)ccnc1Cl` [JM3-29-2, (E)-2-((2,4-dichloropyridin-3-yl)methylene)hydrazine-1-carboximidamide acetate]: the viability at 2.5 µM under setting [1] was 32.2% and the viability at 2.5 µM under setting [2] was 122%.

As for `N=C(N)N/N=C/c1ccc(Br)cc1Cl` [JM3-57-2, (E)-2-(4-bromo-2-chlorobenzylidene)hydrazine-1-carboximidamide acetate], the viability at 2.5 µM worked out at 28.1% under setting [1] and 107% under setting [2].

Take `N=C(N)N/N=C/c1ccc(-c2ccccc2)cc1Cl` [JM3-63-2, (E)-2-((3-chloro-[1,1′-biphenyl]-4-yl)methylene)hydrazine-1-carboximidamide acetate]: the viability at 2.5 µM reads like this: under setting [1], 15.9%; under setting [2], 60%.

Take `N=C(N)N/N=C/c1c(Cl)cc(-c2ccccc2)cc1Cl` [JM3-67-2, (E)-2-((3,5-dichloro-[1,1′-biphenyl]-4-yl)methylene)hydrazine-1-carboximidamide]: the viability at 2.5 µM worked out at 23.3% under setting [1] and 102% under setting [2].

On to `CCc1cccc(Cl)c1/C=N/NC(=N)N` [JM3-81-2, (E)-2-(2-chloro-6-ethylbenzylidene)hydrazine-1-carboximidamide acetate], for which the viability at 2.5 µM amounted to 29.9% under setting [1] and 130% under setting [2].

Consider `CC(C)c1cccc(Cl)c1/C=N/NC(=N)N` [JM3-89-2, (E)-2-(2-chloro-6-isopropylbenzylidene)hydrazine-1-carboximidamide acetate], for which the viability at 2.5 µM under setting [1] came to 22% and the viability at 2.5 µM under setting [2] stood at 96%.

As to `CC(C)c1cccc(C(C)C)c1/C=N/NC(=N)N` [JM3-99-2, (E)-2-(2,6-diisopropylbenzylidene)hydrazine-1-carboximidamide], the viability at 2.5 µM reads like this: under setting [1], 20.9%; under setting [2], 91%.

Take `Clc1cccc(Cl)c1Cc1ncc[nH]1` [JM3-131-2, 2-(2,6-dichlorobenzyl)-1H-imidazole]: the viability at 2.5 µM by setting is: under setting [1], 22.8%; under setting [2], 100%.

`N=C(N)N/N=C/c1c(C(F)(F)F)cccc1C(F)(F)F` [JM3-141-2, (E)-2-(2,6-bis(trifluoromethyl)benzylidene)hydrazine-1-carboximidamide acetate]: the viability at 2.5 µM is, setting by setting: under setting [1], 19.6%; under setting [2], 86%.

`Clc1cccc(/C=N/NC2=NCCN2)c1Cl` [JM3-149-2, (E)-2-(2-(2,3-dichlorobenzylidene)hydrazinyl)-4,5-dihydro-1H-imidazole hydrochloride]: the viability at 2.5 µM under setting [1] amounted to 29.1% and the viability at 2.5 µM under setting [2] stood at 125%.

The values above are taken from patent publication US12006294B2, “Therapeutic compounds” (REGENTS OF THE UNIVERSITY OF MINNESOTA, priority 2017, dated 2024).
